US11807644B2 (PMV Pharmaceuticals, Inc., priority 2020, dated 2023)

target: T1, recombinant His-tag Y220C p53 DBD protein (Homo sapiens, UniProt P04637, Y220C); experiment: In vitro DNA binding activity assay (TR-FRET): binding of His-tag Y220C p53 DBD to biotin-labeled consensus DNA; format: biochemical; conditions: SC150 = concentration to increase DNA binding by […], His-tag Y220C p53 DBD, biotin-labeled consensus DNA
T1 construct: recombinant His-tag Y220C p53 DBD protein (amino acids #˜94-312)

**Q.** For `C[C@H]1CN(C)CC[C@H]1Nc1cccc2c1cc(-c1noc(CNC(=O)c3ccc(C(C)(C)O)s3)n1)n2CC(F)(F)F` [Compound 509B, N-{[3-(4-{[(3S,4R)-1,3-dimethylpiperidin-4-yl]amino}-1-(2,2,2-trifluoroethyl)-1H-indol-2-yl)-1,2,4-oxadiazol-5-yl]methyl}-5-(2-hydroxypropan-2-yl)thiophene-2-carboxamide], which “Y220C SC150 (μM)” value is on record?
**A.** * (* = 0 μM ≤ SC150 < 0.1 μM)

**Q.** How did the “Y220C SC150 (μM)” value turn out when `CCN1CCC(Nc2cccc3c2cc(-c2noc(CNC(=O)C4CC4)n2)n3CC(F)(F)F)CC1` [Compound 168B, N-[(3-{4-[(1-ethylpiperidin-4-yl)amino]-1-(2,2,2-trifluoroethyl)-1H-indol-2-yl}-1,2,4-oxadiazol-5-yl)methyl]cyclopropanecarboxamide] was run?
**A.** * (* = 0 μM ≤ SC150 < 0.1 μM)

**Q.** `CCN1CC[C@@H](Nc2cccc3c2cc(-c2noc(CNC(=O)c4ccn(CCOC)c4)n2)n3CC(F)(F)F)[C@@H](F)C1` [Compound 272B, N-{[3-(4-{[(3S,4R)-1-ethyl-3-fluoropiperidin-4-yl]amino}-1-(2,2,2-trifluoroethyl)-1H-indol-2-yl)-1,2,4-oxadiazol-5-yl]methyl}-1-(2-methoxyethyl)-1H-pyrrole-3-carboxamide] was tested. Which “Y220C SC150 (μM)” value did it give?
**A.** * (* = 0 μM ≤ SC150 < 0.1 μM)

**Q.** With `CN1CCC(Nc2cccc3c2cc(-c2nnc(CNC(=O)C4CC4)s2)n3CC(F)(F)F)CC1` [Compound 35B, N-[(5-{4-[(1-methylpiperidin-4-yl)amino]-1-(2,2,2-trifluoroethyl)-1H-indol-2-yl}-1,3,4-thiadiazol-2-yl)methyl]cyclopropanecarboxamide] as the compound, how does the “Y220C SC150 (μM)” value read?
**A.** * (* = 0 μM ≤ SC150 < 0.1 μM)

**Q.** How did the “Y220C SC150 (μM)” value turn out when `COCC(C)(C)n1ccc(C(=O)NCc2nc(-c3cc4c(N[C@@H]5CCN(C)C[C@@H]5F)cccc4n3CC(F)(F)F)no2)n1` [Compound 547B, N-{[3-(4-{[(3S,4R)-3-fluoro-1-methylpiperidin-4-yl]amino}-1-(2,2,2-trifluoroethyl)-1H-indol-2-yl)-1,2,4-oxadiazol-5-yl]methyl}-1-(1-methoxy-2-methylpropan-2-yl)-1H-pyrazole-3-carboxamide] was run?
**A.** * (* = 0 μM ≤ SC150 < 0.1 μM)

**Q.** With `CN1CC[C@@H](Nc2cccc3c2cc(-c2noc(CNC(=O)c4cnc(N(C)C)s4)n2)n3CC(F)(F)F)[C@@H](F)C1` [Compound 432B, 2-(dimethylamino)-N-{[3-(4-{[(3S,4R)-3-fluoro-1-methylpiperidin-4-yl]amino}-1-(2,2,2-trifluoroethyl)-1H-indol-2-yl)-1,2,4-oxadiazol-5-yl]methyl)-1,3-thiazole-5-carboxamide] as the compound, how does the “Y220C SC150 (μM)” value read?
**A.** * (* = 0 μM ≤ SC150 < 0.1 μM)

**Q.** How did the “Y220C SC150 (μM)” value turn out when `CN1CC[C@@H](Nc2cccc3c2cc(-c2noc(CNC(=O)c4ccn(CCF)c4)n2)n3CC(F)(F)F)[C@@H](F)C1` [Compound 205B, N-{[3-(4-{[(3S,4R)-3-fluoro-1-methylpiperidin-4-yl]amino}-1-(2,2,2-trifluoroethyl)-1H-indol-2-yl)-1,2,4-oxadiazol-5-yl]methyl}-1-(2-fluoroethyl)-1H-pyrrole-3-carboxamide] was run?
**A.** * (* = 0 μM ≤ SC150 < 0.1 μM)

**Q.** Which “Y220C SC150 (μM)” value does the source give for `CN1CC[C@@H](Nc2cccc3c2cc(-c2noc(C(=O)NCC4CCOCC4)n2)n3CC(F)(F)F)[C@@H](F)C1` [Compound 558B, 3-(4-{[(3S,4R)-3-fluoro-1-methylpiperidin-4-yl]amino}-1-(2,2,2-trifluoroethyl)-1H-indol-2-yl)-N-[(oxan-4-yl)methyl]-1,2,4-oxadiazole-5-carboxamide] here?
**A.** * (* = 0 μM ≤ SC150 < 0.1 μM)

**Q.** `CN1CCC(Nc2cccc3c2cc(-c2nnc(CNC(=O)c4cn[nH]c4)s2)n3CC(F)(F)F)CC1` [Compound 72B, N-[(5-{4-[(1-methylpiperidin-4-yl)amino]-1-(2,2,2-trifluoroethyl)-1H-indol-2-yl}-1,3,4-thiadiazol-2-yl)methyl]-1H-pyrazole-4-carboxamide] was tested. Which “Y220C SC150 (μM)” value did it give?
**A.** * (* = 0 μM ≤ SC150 < 0.1 μM)

**Q.** For `CC1CN(c2nc(C(=O)NCc3nc(-c4cc5c(N[C@@H]6CCN(C)C[C@@H]6F)cccc5n4CC(F)(F)F)no3)cs2)C[C@H](C)O1` (stereo in doubt) [Compound 517B, 2-[(2S,6S)-2,6-dimethylmorpholin-4-yl]-N-{[3-(4-{[(3S,4R)-3-fluoro-1-methylpiperidin-4-yl]amino}-1-(2,2,2-trifluoroethyl)-1H-indol-2-yl)-1,2,4-oxadiazol-5-yl]methyl}-1,3-thiazole-4-carboxamide], which “Y220C SC150 (μM)” value is on record?
**A.** * (* = 0 μM ≤ SC150 < 0.1 μM)

**Q.** For `CN1CC[C@@H](Nc2cccc3c2cc(-c2noc(CNC(=O)c4ccn(C5CCCC5OCCF)c4)n2)n3CC(F)(F)F)[C@@H](F)C1` (stereo in doubt) [Compound 381B, N-{[3-(4-{[(3S,4R)-3-fluoro-1-methylpiperidin-4-yl]amino}-1-(2,2,2-trifluoroethyl)-1H-indol-2-yl)-1,2,4-oxadiazol-5-yl]methyl}-1-[(1R,2R)-2-(2-fluoroethoxy)cyclopentyl]-1H-pyrrole-3-carboxamide], which “Y220C SC150 (μM)” value is on record?
**A.** * (* = 0 μM ≤ SC150 < 0.1 μM)

**Q.** For `CN1CC[C@H](Nc2cccc3c2cc(-c2nnc(CNC(=O)c4ccccc4)o2)n3CC(F)(F)F)[C@H](F)C1` (racemic) [Compound 118B, (+/−)-N-{[5-(4-{[(3R,4S)-3-fluoro-1-methylpiperidin-4-yl]amino}-1-(2,2,2-trifluoroethyl)-1H-indol-2-yl)-1,3,4-oxadiazol-2-yl]methyl}benzamide], which “Y220C SC150 (μM)” value is on record?
**A.** ** (** = 0.1 μM ≤ SC150 < 0.5 μM)

**Q.** How did the “Y220C SC150 (μM)” value turn out when `CN1CC[C@@H](Nc2cccc3c2cc(-c2noc(CNC(=O)c4cccc(N5CCCC5)c4)n2)n3CC(F)(F)F)[C@@H](F)C1` [Compound 263B, N-{[3-(4-{[(3S,4R)-3-fluoro-1-methylpiperidin-4-yl]amino}-1-(2,2,2-trifluoroethyl)-1H-indol-2-yl)-1,2,4-oxadiazol-5-yl]methyl}-3-(pyrrolidin-1-yl)benzamide] was run?
**A.** * (* = 0 μM ≤ SC150 < 0.1 μM)

**Q.** Which “Y220C SC150 (μM)” value does the source give for `CN1CC[C@@H](Nc2cccc3c2cc(-c2noc(CNC(=O)c4ccc5[nH]ccc5c4)n2)n3CC(F)(F)F)[C@@H](F)C1` [Compound 258B, N-{[3-(4-{[(3S,4R)-3-fluoro-1-methylpiperidin-4-yl]amino}-1-(2,2,2-trifluoroethyl)-1H-indol-2-yl)-1,2,4-oxadiazol-5-yl]methyl}-1H-indole-5-carboxamide] here?
**A.** * (* = 0 μM ≤ SC150 < 0.1 μM)

**Q.** `COC1CCCC1n1ccc(C(=O)NCc2nc(-c3cc4c(N[C@@H]5CCN(C)C[C@@H]5F)cccc4n3CC(F)(F)F)no2)c1` (stereo in doubt) [Compound 364B, N-{[3-(4-{[(3S,4R)-3-fluoro-1-methylpiperidin-4-yl]amino}-1-(2,2,2-trifluoroethyl)-1H-indol-2-yl)-1,2,4-oxadiazol-5-yl]methyl}-1-[(1R,2S)-2-methoxycyclopentyl]-1H-pyrrole-3-carboxamide] was tested. Which “Y220C SC150 (μM)” value did it give?
**A.** * (* = 0 μM ≤ SC150 < 0.1 μM)

same assay, conditions: concentration to increase DNA binding by […], incubated at either 27° C. or 29° C. for 60 min

**Q.** How did the “SC150 (μM)” value turn out when `CNC(=O)c1ccc(-c2cc3c(NC4CCS(=O)(=O)CC4)cccc3n2CC(F)(F)F)cc1` [Compound 5A, 4-{4-[(1,1-dioxo-1λ^6-thian-4-yl)amino]-1-(2,2,2-trifluoroethyl)-1H-indol-2-yl}-N-methylbenzamide] was run?
**A.** ++++ (++++ = 10 μM ≤ SC150 < 35 μM)
